Where a name gives a salt, the structure may show the parent alone.

The EC50 is the concentration at which the effect is half-maximal. A low value points to an effect from little substance.

One test has as its target T1, Bcl-2-like protein 10 [11-204] (Homo sapiens, UniProt Q9HD36).
T1 construct: 11-204
T1 sequence (Q9HD36 whole entry): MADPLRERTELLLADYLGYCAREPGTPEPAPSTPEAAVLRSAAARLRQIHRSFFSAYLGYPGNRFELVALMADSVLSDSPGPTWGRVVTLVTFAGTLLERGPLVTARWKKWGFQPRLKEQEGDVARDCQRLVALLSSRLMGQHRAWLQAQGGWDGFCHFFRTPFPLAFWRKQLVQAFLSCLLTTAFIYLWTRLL
The experiment in a line: modulators of Bcl-B/Bim peptide interaction – biochemical, multiplexed, bead-based flow cytometry, human, dose response (AID 1327).
Conditions: not given
Turning to `Cc1nc2ncccn2c1-c1csc(Nc2ccc(O)cc2)n1`, a half-maximal response (EC50) required 0.12 µM.
Compound `COc1ccc(CC(=O)Nc2ccc(-c3nc4cc(C)ccc4o3)c(O)c2)cc1OC` [2-(3,4-dimethoxyphenyl)-N-[(4Z)-3-keto-4-(5-methyl-3H-1,3-benzoxazol-2-ylidene)cyclohexa-1,5-dien-1-yl]acetamide] gave an EC50 of 14.8 µM.
Take `Nc1ccc(N2CCN(CCCCN3C(=O)C4CCCN4C3=O)CC2)cc1` (stereo not given) [2-[4-[4-(4-aminophenyl)-1-piperazinyl]butyl]-5,6,7,7a-tetrahydropyrrolo[1,2-c]imidazole-1,3-dione;hydrate;hydrochloride]: the EC50 amounted to 52.5 µM.
For the compound `COc1ccccc1Cn1nnc2c(=O)[nH]c(C3CCN(C(=O)c4ccc(C)cc4)CC3)nc21` [3-[(2-methoxyphenyl)methyl]-5-[1-(4-methylphenyl)carbonylpiperidin-4-yl]-2H-[1,2,3]triazolo[4,5-d]pyrimidin-7-one], the EC50 was 12.2 µM.
On to `Cc1cc(N)ccc1N1CCCC1` [3-methyl-4-(1-pyrrolidinyl)aniline;hydrochloride], for which the midpoint of the response, the EC50, lay at 2.13 µM.
In the case of `COc1ccccc1Nc1nc(-c2c(C)nc3ncccn23)cs1` [(2-methoxyphenyl)-[4-(2-methylimidazo[1,2-a]pyrimidin-3-yl)thiazol-2-yl]amine;hydrobromide], the response was half-maximal at 0.82 µM (EC50).
The same measure, in the same setting: the figure for `CN(C)[C@@H]1C(=O)C(C(=O)NCN2CCCC2)C(=O)[C@@]2(O)C(=O)C3C(=O)c4c(O)cccc4[C@@](C)(O)C3CC12` (stereo partly drawn) [(2Z,4S,6S,12aS)-4-(dimethylamino)-6,10,11,12a-tetrahydroxy-2-[hydroxy-(1-pyrrolidinylmethylamino)methylidene]-6-methyl-4,4a,5,5a-tetrahydrotetracene-1,3,12-trione] is 14.3 µM.
As for `COc1cc(CN=Nc2nn3cnnc3c3ccccc23)ccc1O` [(4E)-2-methoxy-4-[[2-([1,2,4]triazolo[3,4-a]phthalazin-6-yl)hydrazinyl]methylidene]cyclohexa-2,5-dien-1-one], the midpoint of the response, the EC50, lay at 1.07 µM.
`O=c1c2c(n3nnnc3n1Cc1ccccc1)-c1ccccc1CC21CCCC1` [MLS000030575]: the EC50 is 5.52 µM.
The same measure, in the same setting: the same measure for `Clc1nc(NCc2cccnc2)nc(N2CCOCC2)n1` [MLS000121154]: 8.51 µM; for `Clc1ccc2c(N=NCc3ccccc3Br)ccnc2c1` [MLS000336087]: 9.57 µM; for `O=S1(=O)N=C(N(CCO)N=Cc2ccncc2)c2ccccc21` [MLS000682942]: 11.8 µM.
Turning to `OCCN1CCN(CCCc2c3c(cc4c2CCC4)CCC3)CC1` [MLS000698424], the EC50 was 15.5 µM.
With `COc1cccc2c(SCC(=O)NN=Cc3ccc(O)cc3O)cc(C)nc12` [N'-[(E)-(2-hydroxy-4-oxo-1-cyclohexa-2,5-dienylidene)methyl]-2-[(8-methoxy-2-methyl-4-quinolinyl)thio]acetohydrazide], the EC50 was determined as 9.13 µM.
`COc1cc(C=NNC(=O)CN(Cc2ccco2)S(=O)(=O)c2ccccc2)ccc1O` [N-(2-furanylmethyl)-N-[2-[[(E)-(3-methoxy-4-oxo-1-cyclohexa-2,5-dienylidene)methyl]hydrazo]-2-oxoethyl]benzenesulfonamide] had an EC50 of 7.81 µM.
On the same count and under the same terms, the figure for `COc1cccc(CN=Nc2nn3cnnc3c3ccccc23)c1` [N-[1-(3-Methoxy-phenyl)-meth-(E)-ylidene]-N'-[1,2,4]triazolo[3,4-a]phthalazin-6-yl-hydrazine] is 0.98 µM; for `Clc1ccc2c(N=NCc3ccc(Br)cc3)ccnc2c1` [N-[(4-bromophenyl)methylideneamino]-7-chloranyl-quinolin-4-amine] it is 20.9 µM; for `Cc1cccc(OCC(=O)NCC(=O)NN=Cc2cc(Br)ccc2OCc2ccccc2)c1` [N-[(5-bromanyl-2-phenylmethoxy-phenyl)methylideneamino]-2-[2-(3-methylphenoxy)ethanoylamino]ethanamide] it is 5.53 µM.

The test is the same for the next values; noted with them: inactive by the depositor's call.
As for `Cc1ccc(C)n1-c1cccc(C(=O)O)c1`, the midpoint of the response, the EC50, lay at 49.5 µM.
Take `O=C(Nc1ccc2nc(-c3ccco3)c(-c3ccco3)nc2c1)N1CCCCCC1`: the EC50 amounted to 33.3 µM.
Still for that read-out and setting: the same measure for `CN1CCN(C2=C(Cl)C(=O)C(c3cnc(N4CCCCC4)s3)=C(Cl)C2=O)CC1`: 3.42 µM; for `CCOC(=O)c1ccc(Nc2nc(C(=O)OCC)nc3ccccc23)cc1`: 2.18 µM.
As to `CCOCCCn1c(N)c(C(=O)Nc2sc3c(c2C(=O)OC)CCCC3)c2nc3ccccc3nc21`, the EC50 stood at 1.28 µM.
`O=S1(=O)N=C(N(CCO)N=C/C=C/c2ccccc2)c2ccccc21` showed an EC50 of 11.7 µM.
The same measure, in the same setting: the same measure for `CCOC(=O)c1c2c3c(cccc3[nH]c1=O)C(=O)c1ccccc1-2`: 3.53 µM.
On to `CCN(CC)c1ccc(-c2nn3c(-c4ccccc4OC)nnc3s2)cc1`, for which a half-maximal effect (EC50) was put at 21.7 µM.
For `O=C(NCc1ccccc1)c1ccc2nc(-c3ccco3)c(-c3ccco3)nc2c1` [2,3-bis(furan-2-yl)-N-(phenylmethyl)quinoxaline-6-carboxamide], the midpoint of the response, the EC50, lay at 20.6 µM.
Turning to `O=C(Nc1ccccc1)c1ccc2nc(-c3ccco3)c(-c3ccco3)nc2c1` [2,3-di-2-furyl-N-phenyl-6-quinoxalinecarboxamide], it took 33.8 µM to reach a half-maximal effect (EC50).
Take `O=C(COc1ccccc1)N1CCN(c2ncnc3c2cnn3-c2ccccc2)CC1` [2-Phenoxy-1-[4-(1-phenyl-1H-pyrazolo[3,4-d]pyrimidin-4-yl)-piperazin-1-yl]-ethanone]: the EC50 worked out at 19.2 µM.
`Cc1cccc(C=NN(CCO)C2=NS(=O)(=O)c3ccccc32)c1` [2-[(1,1-dioxo-1,2-benzothiazol-3-yl)-[(3-methylphenyl)methylideneamino]amino]ethanol] came in with an EC50 of 38.7 µM.
In turn, `Cc1cc(OCc2cn3cccnc3n2)ccc1Cl` [2-[(4-chloranyl-3-methyl-phenoxy)methyl]imidazo[1,2-a]pyrimidine] came in with an EC50 of 17.3 µM.
Regarding `O=S1(=O)N=C(N(CCO)N=Cc2ccccc2)c2ccccc21` [2-[(benzylideneamino)-(1,1-dioxo-1,2-benzothiazol-3-yl)amino]ethanol], the EC50 was 12.8 µM.
In the case of `O=C(CSc1ccc2nnc(-c3ccccn3)n2n1)Nc1nccs1` [2-[[3-(2-pyridinyl)-[1,2,4]triazolo[4,3-b]pyridazin-6-yl]thio]-N-(2-thiazolyl)acetamide], a half-maximal response (EC50) required 5.54 µM.
Regarding `O=C(NCCCN1CCN(CCCNC(=O)c2cc([N+](=O)[O-])ccc2Cl)CC1)c1cc([N+](=O)[O-])ccc1Cl` [2-chloranyl-N-[3-[4-[3-[(2-chloranyl-5-nitro-phenyl)carbonylamino]propyl]piperazin-1-yl]propyl]-5-nitro-benzamide], the EC50 came to 43.4 µM.
`Cc1nc2ncccn2c1-c1csc(Nc2ccccc2)n1` [4-(2-methyl-3-imidazo[1,2-a]pyrimidinyl)-N-phenyl-2-thiazolamine] came in with an EC50 of 1.38 µM.
Compound `COc1ccccc1-n1c(-c2ccc(Cl)cc2)c[nH]c1=S` [4-(4-chlorophenyl)-3-(2-methoxyphenyl)-1H-imidazole-2-thione] gave an EC50 of 11.4 µM.
On to `Cc1cc(C)nc(SCc2cc(=O)c(OC(=O)c3ccc(Cl)c([N+](=O)[O-])c3)co2)n1` [4-chloro-3-nitrobenzoic acid [6-[[(4,6-dimethyl-2-pyrimidinyl)thio]methyl]-4-oxo-3-pyranyl] ester], for which the EC50 was found to be 1.51 µM.
Consider `COc1ccc(C2=Nn3c(nnc3-c3ccco3)SC2)cc1OC` [6-(3,4-Dimethoxy-phenyl)-3-furan-2-yl-7H-[1,2,4]triazolo[3,4-b][1,3,4]thiadiazine], for which it took 1.15 µM to reach a half-maximal effect (EC50).
In turn, `COc1ccc(C2=Nn3c(nnc3-c3ccccn3)SC2)cc1OC` [6-(3,4-dimethoxyphenyl)-3-(2-pyridinyl)-7H-[1,2,4]triazolo[3,4-b][1,3,4]thiadiazine] came in with a concentration giving a half-maximal response (EC50) of 6.18 µM.
Take `CN(N=C/C=C/c1ccccc1)C1=NS(=O)(=O)c2ccccc21` [(1E,2E)-3-phenylacrylaldehyde (1,1-dioxido-1,2-benzisothiazol-3-yl)(methyl)hydrazone]: the EC50 was found to be 1.94 µM.
In the case of `Cc1cc(-c2nnc3n2N=C(c2ccc(-c4ccccc4)cc2)CS3)[nH]n1` [MLS000082991], a half-maximal effect (EC50) was put at 36.4 µM.
As to `O=C1NC(=O)C2(Cc3c(nc4ccccn4c3=O)N3CCCCCC32)C(=O)N1Cc1ccccc1` (stereo not given) [MLS000083668], the midpoint of the response, the EC50, lay at 18.2 µM.
Compound `Cc1cc2n(c1)CCn1c(C)ccc1-2` [MLS000104384] came in with an EC50 of 11.8 µM.
The compound `O=C(Nc1ccncc1)c1cc2ccccc2o1` [MLS000109378] gave an EC50 of 62.1 µM.
Consider `CCOC(=O)C1CCN(C(=O)Nc2ccc3nc(-c4ccco4)c(-c4ccco4)nc3c2)CC1` [MLS000113285], for which the EC50 turned out to be 46.4 µM.
The compound `Cc1cc(C)cc(NS(=O)(=O)c2ccc3c(c2)c(=O)n(C)c(=O)n3C)c1` [MLS000521783] came in with an EC50 of 17.4 µM.
For `COCCCn1c(N)c(C(=O)Nc2sc3c(c2C(=O)OC)CCCC3)c2nc3ccccc3nc21` [MLS000595323], a half-maximal effect (EC50) was put at 1.39 µM.
The compound `COc1ccc(C)cc1-n1c(=O)c2ccccc2c2ccccc2c1=O` [MLS000682999] yielded an EC50 of 15.6 µM.
For `Cc1ccnc(SCc2cc(=O)c(OC(=O)c3ccc(Cl)c([N+](=O)[O-])c3)co2)n1` [MLS000696790], a half-maximal effect (EC50) was put at 6.62 µM.
Take `CCOC(=O)c1c(O)nc2ccc(Cl)c3c2c1-c1ccccc1C3=O` [MLS000704595]: the EC50 was 1.32 µM.
On the same count and under the same terms, the figure for `Cc1ccc(OCc2cn3cccnc3n2)cc1` [MLS000723172] is 30.6 µM; for `COc1ccccc1-n1c(-c2ccccc2)c[nH]c1=S` [MLS001007615] it is 32.1 µM; for `c1ccc(Nc2cccc(Nc3ccccc3)n2)cc1` [N,N'-diphenyl-2,6-pyridinediamine] it is 7.82 µM.
As for `CC(=O)c1ccc(NC(=O)c2ccc3nc(-c4ccco4)c(-c4ccco4)nc3c2)cc1` [N-(4-acetylphenyl)-2,3-di-2-furyl-6-quinoxalinecarboxamide], the EC50 stood at 33.7 µM.
Turning to `COc1ccc(CCNC(=O)c2ccc3nc(-c4ccco4)c(-c4ccco4)nc3c2)cc1OC` [N-[2-(3,4-dimethoxyphenyl)ethyl]-2,3-di-2-furylquinoxaline-6-carboxamide], the EC50 stood at 52.4 µM.

Values taken from BindingDB's records for doi:10.7270/Q2GH9GBT (Nmmlsc, 2008).
